Legend:
[1] = cited from earlier work
[2] = test system: plasma membrane of several mammalian cell types; conditions: energy-independent manner; Zhao et al., J. Pharmacol Exp Ther., 304:425-432, 2003; cited from earlier work
[3] = test system: TAZ1 mRNA; assay: TAZ1 mRNA in LV tissue by real-time PCR, dog model of heart failure; format: in vivo; conditions: HF dogs, 0.5 mg/kg subcutaneous once daily, three months, normalized to GAPDH, printed as e.g. about ... or more
Description: In this Example, the effect of the aromatic-cationic peptide D-Arg-2′6′-Dmt-Lys-Phe-NH2 on cardiolipin remodeling enzymes, MLCL AT1, ALCAT1, and TAZ1 in dogs with coronary microembolization-induced heart failure will be investigated.
Heart failure will be induced in dogs via multiple sequential intracoronary microembolizations as described in Sabbah, et al., Am J Physiol. (1991) 260:H1379-84, herein incorporated by reference in its entirety.
Twelve dogs will be subject to coronary microembolization-induced heart failure (LV ejection fraction ˜30%). Subjects will be randomized into D-Arg-2′6′-Dmt-Lys-Phe-NH2-treated and control groups for a three-month trial. Subjects will receive subcutaneous injections of D-Arg-2′6′-Dmt-Lys-Phe-NH2 (0.5 mg/kg once daily, n=6) or saline (Untreated-HF Control, n=6). RNA will be prepared from LV tissue of all subjects at the end of the treatment phase and from the LV of six normal subject controls. Levels of TAZ1 mRNA will be determined by real-time PCR. Changes in mRNA levels will be expressed as fold reduction using the CT Method, with normalization to a […] (GAPDH) internal control.

[4] = test system: heart mitochondrial cardiolipin; assay: 18:2 cardiolipin in left ventricle heart muscle, dog model of heart failure (shotgun lipidomics); format: in vivo; conditions: HF dogs, 0.5 mg/kg/day intravenously, 12 weeks, versus normal dogs (NL) and untreated HF dogs (HF-CON)
Description: In this Example, the effect of aromatic-cationic peptide such as D-Arg-2′6′-Dmt-Lys-Phe-NH2 on heart mitochondrial cardiolipin levels in dogs with coronary microembolization-induced heart failure will be investigated.
Heart failure will be induced in dogs via multiple sequential intracoronary microembolizations as described in Sabbah, et al., Am J Physiol. (1991) 260:H1379-84, herein incorporated by reference in its entirety. Half the dogs will be subsequently treated with the mitochondrial peptide; the other half will be treated with drug vehicle and serve as controls. Peptide treatment will be started upon induction of heart failure (HF), defined as left ventricular ejection fraction of approximately 30%. The daily dose of the peptide will be 0.5 mg/kg/day administered intravenously. At the end of the treatment phase (12 weeks) dogs in both the vehicle and treatment groups will be sacrificed and a sample of heart muscle from the left ventricle will be removed, washed with saline, and immediately frozen and stored at −80° C. For cardiolipin analysis, lipids will be extracted from the heart tissue sample with a chloroform/methanol solution (Bligh Dyer extraction). […]

[5] = test system: dogs with coronary microembolization-induced heart failure; assay: LV function and mitochondrial ATP synthesis, dog model of heart failure; format: in vivo; conditions: HF dogs, chronic treatment
[6] = molecular target: mu-opioid receptor (Homo sapiens, UniProt P35372); assay: mu-opioid receptor agonist activity; conditions: stated in the description, no test described
mu-opioid receptor, sequence (P35372 whole entry, species assumed): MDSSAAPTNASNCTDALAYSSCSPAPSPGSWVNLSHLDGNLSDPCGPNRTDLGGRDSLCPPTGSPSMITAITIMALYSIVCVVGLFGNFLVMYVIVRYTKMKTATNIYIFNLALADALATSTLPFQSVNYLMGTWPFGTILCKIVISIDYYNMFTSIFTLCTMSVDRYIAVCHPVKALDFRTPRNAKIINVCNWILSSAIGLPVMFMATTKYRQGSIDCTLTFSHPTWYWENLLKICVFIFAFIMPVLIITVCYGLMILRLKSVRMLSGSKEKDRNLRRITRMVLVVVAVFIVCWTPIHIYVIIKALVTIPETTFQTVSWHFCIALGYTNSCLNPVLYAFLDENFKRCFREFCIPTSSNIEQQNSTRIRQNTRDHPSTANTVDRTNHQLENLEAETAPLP

## cardiolipin
[1]; ionization of both phosphates
  pK2: > 7.5
[1]; ionization of one phosphate
  pK1: 3

## 2′,6′-Dmt-D-Arg-Phe-Lys-NH2
[2]
  penetration of cell membranes: readily penetrates

## D-Arg-2′6′-Dmt-Lys-Phe-NH2
[3]
  attenuation of the decrease of TAZ1 mRNA: 1-1.23 fold
[4]
  levels of 18:2 cardiolipin: normalize
[5]
  LV function: improved
  rate of mitochondrial ATP synthesis: improved
[6]
  mu-opioid receptor agonist activity: does not have mu-opioid receptor agonist activity

— patent publication US12297502B2, “Methods and compositions for detecting and diagnosing diseases and conditions” (Stealth BioTherapeutics Inc., priority 2013, dated 2025)
